Reference: PubChem BioAssay AID220 (DTP/NCI, 2004)
“And” between values parts separate entries of the source, which are not always exact repeats. Equal values may be shown once. Records with an inconclusive call do not appear.

System: CD8F1 mice, subcutaneous mammary adenocarcinoma, T/C%
Experiment: NCI In Vivo Anticancer Drug Screen. Data for tumor model Mammary Adenocarcinoma CD8F1 (subcutaneous) in CD8F1
Conditions: higher = larger tumour
Method in brief: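 Tumor-bearing mice, transplantable model; readout survival or tumor size; value = treated (T) / vehicle control (C).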

[1] = endpoint: median tumor weight change, dose: 62.5 mg/kg/injection, schedule: Q01DX001 (ip), vehicle: saline with Tween-80
[2] = endpoint: median tumor weight change, dose: 125.0 mg/kg/injection, schedule: Q01DX001 (ip), vehicle: saline with Tween-80
[3] = endpoint: median tumor weight change, dose: 250.0 mg/kg/injection, schedule: Q01DX001 (ip), vehicle: saline with Tween-80

Q: `C[Si](C)(C)O/C=C1\CCCCC1=O` was tested. Which T/C (endpoint: median tumor weight change, dose: 62.0 mg/kg/injection, schedule: Q01DX001 (ip), vehicle: saline with Tween-80) did it give?
A: Its T/C is 70 % of control.

Q: What about the T/C [1] of the same compound?
A: Its T/C is 119 % of control.

Q: And the T/C [2]?
A: Its T/C is 54 % of control and 69 % of control.

Q: And the T/C [3]?
A: The T/C was 93 % of control.

Q: `N#CC(C#N)=C/C=C/c1cccc([N+](=O)[O-])c1` was tested. Which T/C (endpoint: median tumor weight (est.), dose: 3.12 mg/kg/injection, schedule: Q07DX005 (ip), vehicle: Klucel (hydroxypropylcellulose) (HPC)) did it give?
A: Its T/C is 122 % of control.

Q: And the T/C (endpoint: median tumor weight (est.), dose: 6.25 mg/kg/injection, schedule: Q07DX005 (ip), vehicle: Klucel (hydroxypropylcellulose) (HPC))?
A: The T/C was 239 % of control.

Q: And the T/C (endpoint: median tumor weight (est.), dose: 12.5 mg/kg/injection, schedule: Q07DX005 (ip), vehicle: Klucel (hydroxypropylcellulose) (HPC))?
A: Its T/C is 169 % of control.

Q: What about the T/C (endpoint: median tumor weight (est.), dose: 25.0 mg/kg/injection, schedule: Q07DX005 (ip), vehicle: Klucel (hydroxypropylcellulose) (HPC)) of the same compound?
A: Its T/C is 152 % of control.

Q: What does the source list for `Nc1nc(=O)n(C2OC(CO)C(O)C2O)cc1F` (configuration not stated)?
A: T/C (endpoint: median tumor weight (est.), dose: 12.5 mg/kg/injection, schedule: Q07DX005 (ip), vehicle: saline): 91 % of control; T/C (endpoint: median tumor weight (est.), dose: 25.0 mg/kg/injection, schedule: Q07DX005 (ip), vehicle: saline): 93 % of control; T/C (endpoint: median tumor weight (est.), dose: 50.0 mg/kg/injection, schedule: Q07DX005 (ip), vehicle: saline): 61 % of control; T/C (endpoint: median tumor weight (est.), dose: 100.0 mg/kg/injection, schedule: Q07DX005 (ip), vehicle: saline): 78 % of control; T/C (endpoint: median tumor weight (est.), dose: 200.0 mg/kg/injection, schedule: Q07DX005 (ip), vehicle: saline): 46 % of control; T/C (endpoint: median tumor weight (est.), dose: 400.0 mg/kg/injection, schedule: Q07DX005 (ip), vehicle: saline): 34 % of control

Q: `CC[C@@H](C)[C@@H]1NC(=O)C(NC(=O)C(CC(C)C)N(C)C(=O)C2CCCN2C(=O)C(C)O)C(C)OC(=O)C(Cc2ccc(OC)cc2)N(C)C(=O)C2CCCN2C(=O)C(CC(C)C)NC(=O)C(C)C(=O)C(C(C)C)OC(=O)C[C@H]1O` (some centres not stated) was tested. Which T/C (endpoint: median tumor weight change, dose: 20.0 micrograms/kg/injection, schedule: Q01DX001 (ip), vehicle: distilled water + alcohol) did it give?
A: Its T/C is 73 % of control.

Q: What about the T/C (endpoint: median tumor weight change, dose: 40.0 micrograms/kg/injection, schedule: Q01DX001 (ip), vehicle: distilled water + alcohol) of the same compound?
A: The T/C was 55 % of control.

Q: And the T/C (endpoint: median tumor weight change, dose: 300.0 micrograms/kg/injection, schedule: Q01DX001 (ip), vehicle: distilled water + alcohol)?
A: The T/C was 63 % of control.

Q: What about the T/C (endpoint: median tumor weight change, dose: 320.0 micrograms/kg/injection, schedule: Q01DX001 (ip), vehicle: distilled water + alcohol) of the same compound?
A: Its T/C is 88 % of control.

Q: And the T/C (endpoint: median tumor weight change, dose: 600.0 micrograms/kg/injection, schedule: Q01DX001 (ip), vehicle: distilled water + alcohol)?
A: Its T/C is 71 % of control.

Q: And the T/C (endpoint: median tumor weight change, dose: 1200.0 micrograms/kg/injection, schedule: Q01DX001 (ip), vehicle: distilled water + alcohol)?
A: Its T/C is 37 % of control.

Q: `O=C(N[C@H](CO)[C@H](O)c1ccc([N+](=O)[O-])cc1)C(Cl)Cl` was tested. Which T/C [1] did it give?
A: The T/C was 102 % of control.

Q: What about the T/C [2] of the same compound?
A: The T/C was 91 % of control.

Q: What about the T/C [3] of the same compound?
A: The T/C was 92 % of control.

Q: And the T/C (endpoint: median tumor weight change, dose: 500.0 mg/kg/injection, schedule: Q01DX001 (ip), vehicle: saline with Tween-80)?
A: Its T/C is 73 % of control.

Q: What about the T/C (endpoint: median tumor weight change, dose: 1000.0 mg/kg/injection, schedule: Q01DX001 (ip), vehicle: saline with Tween-80) of the same compound?
A: Its T/C is 98 % of control.

Q: With `CC1(C)CC23C4COC(=O)C2CCC1C3CC4=O` (configuration not stated) as the compound, how does the T/C (endpoint: median tumor weight (est.), dose: 18.0 mg/kg/injection, schedule: Q07DX005 (ip), vehicle: DMSO) read?
A: Its T/C is 72 % of control.

Q: And the T/C (endpoint: median tumor weight (est.), dose: 18.0 mg/kg/injection, schedule: Q07DX005 (ip), vehicle: Klucel (hydroxypropylcellulose) (HPC))?
A: Its T/C is 98 % of control.

Q: And the T/C (endpoint: median tumor weight (est.), dose: 36.0 mg/kg/injection, schedule: Q07DX005 (ip), vehicle: DMSO)?
A: Its T/C is 79 % of control.

Q: And the T/C (endpoint: median tumor weight (est.), dose: 36.0 mg/kg/injection, schedule: Q07DX005 (ip), vehicle: Klucel (hydroxypropylcellulose) (HPC))?
A: The T/C was 89 % of control.

Q: And the T/C (endpoint: median tumor weight (est.), dose: 72.0 mg/kg/injection, schedule: Q07DX005 (ip), vehicle: Klucel (hydroxypropylcellulose) (HPC))?
A: Its T/C is 97 % of control.

Q: What about the T/C (endpoint: median tumor weight (est.), dose: 144.0 mg/kg/injection, schedule: Q07DX005 (ip), vehicle: Klucel (hydroxypropylcellulose) (HPC)) of the same compound?
A: Its T/C is 71 % of control.

Q: What about the T/C (endpoint: median tumor weight (est.), dose: 288.0 mg/kg/injection, schedule: Q07DX005 (ip), vehicle: DMSO) of the same compound?
A: The T/C was 87 % of control.

Q: And the T/C (endpoint: median tumor weight (est.), dose: 288.0 mg/kg/injection, schedule: Q07DX005 (ip), vehicle: Klucel (hydroxypropylcellulose) (HPC))?
A: Its T/C is 66 % of control.

Q: With `CC(=O)NC(C=O)OCC=O` (configuration not stated) as the compound, how does the T/C (endpoint: median tumor weight change, dose: 62.5 mg/kg/injection, schedule: Q01DX001 (ip), vehicle: water) read?
A: The T/C was 85 % of control.

Q: What about the T/C (endpoint: median tumor weight change, dose: 125.0 mg/kg/injection, schedule: Q01DX001 (ip), vehicle: water) of the same compound?
A: Its T/C is 118 % of control.

Q: And the T/C (endpoint: median tumor weight change, dose: 250.0 mg/kg/injection, schedule: Q01DX001 (ip), vehicle: water)?
A: The T/C was 118 % of control.

Q: And the T/C (endpoint: median tumor weight change, dose: 500.0 mg/kg/injection, schedule: Q01DX001 (ip), vehicle: water)?
A: Its T/C is 34 % of control.
